Data on two compounds can be found in publication PMC5369982, “Near infrared fluorescent imaging of choline kinase alpha expression and inhibition in breast tumors” (Oncotarget, 2017).

One data set concerns 4175-Luc+ tumors. In words: NIRF optical imaging, JAS239 biodistribution in mice bearing 4175-Luc+ tumors. The class given is in vivo, mouse. As to the method: Bioluminescence and NIRF (Ex. 745 nm; Em. 800 nm) images were acquired in an IVIS Spectrum (PerkinElmer). NIRF is measured in Average Radiant Efficiency, photons per second (p/sec) corrected for the area of the region of interest (ROI) and the efficiency of the lamp (μ Watt *cm^−2 / steradian^-1). For bioluminescence imaging, mice were injected i.p. with 150 mg/kg of firefly D-luciferin (Biosynth). Bioluminescent Radiance (p/sec/cm^2/sr) was monitored by time-course imaging until the luminescence intensity plateaued. For NIRF imaging, mice were injected i.v. with 100 μL vehicle or JAS239 (20 nmol). Two vehicle formulations were tested in mice bearing 4175-Luc+ tumors: the first was 0.1% Tween-80 / 50 mM Tris-HCl, and the second was 1% ethanol diluted in 0.9% saline. ROIs with a 20% threshold were created from the bioluminescence image using the LivingImage software (PerkinElmer) program, and this region was used to analyze intratumoral JAS239 accumulation in the NIRF images. Resected organs were placed in 24-well plates and NIRF was measured to quantify JAS239 biodistribution. For diagnostic studies, mice bearing both MCF7-EV and MCF7-CK+ tumors of approximately 200 μL were injected with 20 nmol JAS239 in Tween-80/Tris (8 mice) or in ethanol/saline (7 mice). The cohorts were euthanized after 90 min / 24h respectively, and tumor-bearing flanks were surgically exposed. NIRF from the tumor-bearing fat pads was subtracted from background muscle signal and the Average Radiant Efficiency measured.

Data set [1] concerns MCF7-EV and MCF7-CK+ tumors. Briefly: NIRF optical imaging of JAS239 in mice bearing MCF7-EV and MCF7-CK+ tumors. The class given is in vivo, mouse. As to the method: All animal studies were approved by the Institutional Animal Care and Use Committee of the University of Pennsylvania. Six week old female athymic nude Foxn1^nu/nu mice (National Cancer Institute) were housed in a temperature-controlled environment with 12 h light/dark cycle. Anesthesia was induced using 2% isoflurane in oxygen for all experiments. For MCF7 tumors, mice were supplemented with 60-day release 0.36 mg 17β-estradiol tablets (Innovative Research of America) using a trochar in the nape of the neck. After 1 week, 4 × 10^6 cells in Matrigel (BD Biosciences) were inoculated into the left (CK+) and contralateral (EV) mammary fat pads. Subcutaneous xenografts, including those analyzed in MRI/MRS studies, were grown on the shoulder to allow for cloaking of the kidneys during optical imaging studies. Tumor growth was determined via caliper measurement of three orthogonal dimensions and volume calculated as length * width * height * π/6.
Bioluminescence and NIRF (Ex. 745 nm; Em. 800 nm) images were acquired in an IVIS Spectrum (PerkinElmer). NIRF is measured in Average Radiant Efficiency, photons per second (p/sec) corrected for the area of the region of interest (ROI) and the efficiency of the lamp (μ Watt *cm^−2 / steradian^-1). […] Bioluminescent Radiance (p/sec/cm^2/sr) was monitored by time-course imaging until the luminescence intensity plateaued. […]

Details of data set [2]: method as in PMID 10397253. The note with it: cited from earlier work.

Like-named read-outs stand apart in the source and are kept apart here.

In the case of `CC1(C)C(=C/C=C/C=C/C=C/C2=[N+](CCO)c3ccccc3C2(C)C)N(CCO)c2ccccc21` [JAS239], the “Initial hepatic clearance time” value with 4175-Luc+ tumors (20 nmol i.v. in Tween-80/Tris buffer) was “approximately 75 min”. In the data set on 4175-Luc+ tumors (20 nmol i.v. in Tween-80/Tris buffer, 90 min), the “Tumor NIRF emission at 800 nm vs. control” value was “an order of magnitude stronger”. Besides, the “Time of maximum NIRF contrast between tumor and background” value with 4175-Luc+ tumors (20 nmol i.v. in Tween-80/Tris buffer, post-injection) amounted to 90 min. In addition, in the data set on 4175-Luc+ tumors (20 nmol i.v. in ethanol/saline vehicle, subcutaneous tumors), the “Time of highest tumor signal to noise” value stood at 24 h. Also, the “Tumor-to-muscle ratio ex vivo” value in the data set with 4175-Luc+ tumors (ethanol/saline vehicle, 24 h post-injection) was “nearly two-fold”. In addition, the “Hepatic signal compared to the Tween-80/Tris vehicle” value in the data set on 4175-Luc+ tumors (ethanol/saline vehicle, 24 h post-injection, resected organs) was “dropped nearly one order of magnitude”. The “Tumor/normal tissue fluorescence ratio” value in data set [1] is 2.8 ± 0.2.

MN58b [reference compound]: the figures for the Tolerability result in data set [2] (10 mg/kg) and in data set [2] (dosed daily for 5 days at 5 mg/kg) were “lethal” and “tolerable”, respectively.
